Assays:
CDK9/CycT1 = CDK9/CycT1 (Homo sapiens, UniProt P50750); assay: CDK9/CycT1 kinase assay; format: biochemical
CDK2/CycE = CDK2/CycE kinase assay; format: biochemical, human; details: ratio of IC50 values CDK2/CDK9, in-house assays
HeLa cells = assay: Proliferation assay HeLa; format: cell-based; details: Homo sapiens, 96 h, read-out: HeLa IC50
MOLM‐13 human AML model = assay: MOLM‐13 human AML xenograft model in mice; format: in vivo, mouse; details: for T/C ratio: end of the experiment
MOLM‐13 cells = assay: Proliferation assay MOLM‐13; format: cell-based; details: Homo sapiens, MOLM-13, 96 h, read-out: MOLM‐13 IC50
[1] = Metabolic stability in rat liver microsomes; format: in vitro ADME; details: rat, liver microsomes
[2] = Metabolic stability in human liver microsomes; format: in vitro ADME
[3] = Metabolic stability in mouse liver microsomes; format: in vitro ADME

Sequence of CDK9/CycT1 (P50750 whole entry): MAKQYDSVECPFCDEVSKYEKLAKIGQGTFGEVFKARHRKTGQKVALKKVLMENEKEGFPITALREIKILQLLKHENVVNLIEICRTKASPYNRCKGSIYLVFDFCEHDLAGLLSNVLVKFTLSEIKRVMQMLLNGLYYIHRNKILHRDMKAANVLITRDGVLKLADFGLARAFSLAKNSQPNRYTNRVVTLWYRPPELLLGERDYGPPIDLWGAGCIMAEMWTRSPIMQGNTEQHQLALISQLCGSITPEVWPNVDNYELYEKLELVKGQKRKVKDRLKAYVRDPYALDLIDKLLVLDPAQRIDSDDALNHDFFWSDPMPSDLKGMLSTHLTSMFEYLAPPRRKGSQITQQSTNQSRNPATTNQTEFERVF
Sequence of CDK9/CycT1 (O60563 whole entry partner): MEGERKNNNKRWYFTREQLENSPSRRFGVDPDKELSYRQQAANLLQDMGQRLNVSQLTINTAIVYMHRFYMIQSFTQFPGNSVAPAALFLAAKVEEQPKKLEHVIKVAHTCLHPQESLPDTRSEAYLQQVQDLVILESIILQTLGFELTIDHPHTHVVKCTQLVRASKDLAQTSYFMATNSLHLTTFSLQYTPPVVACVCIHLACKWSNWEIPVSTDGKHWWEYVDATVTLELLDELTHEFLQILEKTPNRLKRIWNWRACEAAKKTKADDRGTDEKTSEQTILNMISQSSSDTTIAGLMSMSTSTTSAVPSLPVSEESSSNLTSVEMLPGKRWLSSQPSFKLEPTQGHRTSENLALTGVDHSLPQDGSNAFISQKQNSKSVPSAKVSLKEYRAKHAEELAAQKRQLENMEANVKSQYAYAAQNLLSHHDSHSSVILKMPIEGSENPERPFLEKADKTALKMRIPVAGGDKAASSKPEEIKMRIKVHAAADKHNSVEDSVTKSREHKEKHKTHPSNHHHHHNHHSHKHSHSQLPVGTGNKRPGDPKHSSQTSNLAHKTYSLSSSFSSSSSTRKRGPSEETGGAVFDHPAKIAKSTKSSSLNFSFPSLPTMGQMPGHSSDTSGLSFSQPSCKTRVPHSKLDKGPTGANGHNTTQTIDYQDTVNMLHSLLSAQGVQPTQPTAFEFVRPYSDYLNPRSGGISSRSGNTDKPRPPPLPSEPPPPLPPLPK

Row | IC50 (CDK9/CycT1) [nM] | Selectivity vs. CDK2, ratio of IC50 values (CDK2/CycE) | IC50 (HeLa cells) [nM] | SMILES | other results
1 | 85 | 21 | 3200 | COc1cc(F)ccc1-c1ncnc(Nc2cccc(C(C)S(C)(=O)=O)c2)n1 (racemic) [Compound 10, (rac)‐4‐(4‐Fluoro‐2‐methoxyphenyl)‐N‐{3‐[1‐(methylsulfonyl)ethyl]phenyl}‐1,3,5‐triazin‐2‐amine] | 
2 | 20 | 13 | 890 | COc1cc(F)ccc1-c1ncnc(Nc2cccc(C(F)S(C)(=O)=O)c2)n1 (racemic) [Compound 12, (rac)‐4‐(4‐Fluoro‐2‐methoxyphenyl)‐N‐{3‐[fluoro(methylsulfonyl)methyl]phenyl}‐1,3,5‐triazin‐2‐amine] | 
3 |  |  |  | COc1cc(F)ccc1-c1ncnc(Nc2cccc(CS(N)(=O)=O)c2)n1.Cl [BAY‐958 hydrochloride, 1‐(3‐{[4‐(4‐Fluoro‐2‐methoxyphenyl)‐1,3,5‐triazin‐2‐yl]amino}phenyl)methanesulfonamide hydrochloride] | T/C ratio (MOLM‐13 human AML model; 30 mg kg^−1 daily oral): 0.16; T/C ratio (MOLM‐13 human AML model; 40 mg kg^−1 daily oral): 0.12; body weight change (MOLM‐13 human AML model; 30 or 40 mg kg^−1 daily oral): less than 10%; fatal toxicities (MOLM‐13 human AML model; 30 or 40 mg kg^−1 daily oral): no fatal toxicities
4 |  |  |  | COc1cc(F)ccc1-c1ncnc(Nc2cccc(CS(C)(=O)=O)c2)n1 [Compound 4, 4‐(4‐Fluoro‐2‐methoxyphenyl)‐N‐{3‐[(methylsulfonyl)methyl]phenyl}‐1,3,5‐triazin‐2‐amine] | IC50 (MOLM‐13 cells): 130 nM
5 | 32 | 19 | 1340 | COc1cc(F)ccc1-c1ncnc(Nc2cccc(S(C)(=O)=O)c2)n1 [Compound 5, 4‐(4‐Fluoro‐2‐methoxyphenyl)‐N‐[3‐(methylsulfonyl)phenyl]‐1,3,5‐triazin‐2‐amine] | 
6 | 49 | 12 | 2200 | COc1cc(F)ccc1-c1ncnc(Nc2cccc(CCS(C)(=O)=O)c2)n1 [Compound 6, 4‐(4‐Fluoro‐2‐methoxyphenyl)‐N‐{3‐[2‐(methylsulfonyl)ethyl]phenyl}‐1,3,5‐triazin‐2‐amine] | 
7 | 7 | 22 | 550 | COc1cc(F)ccc1-c1ncnc(Nc2ccc3c(c2)S(=O)(=O)CC3)n1 [Compound 7, N‐( 1,1‐Dioxido‐2,3‐dihydro‐1‐benzothien‐6‐yl)‐4‐(4‐fluoro‐2‐methoxyphenyl)‐1,3,5‐triazin‐2‐amine] | 
8 | 51 | <1 | 11000 | COc1cc(F)ccc1-c1ncnc(Nc2ccc3c(c2)CS(=O)(=O)C3)n1 [Compound 8, N‐( 2,2‐Dioxido‐1,3‐dihydro‐2‐benzothien‐5‐yl)‐4‐(4‐fluoro‐2‐methoxyphenyl)‐1,3,5‐triazin‐2‐amine] | 
9 |  | 43 | 2900 | COc1cc(F)ccc1-c1ncnc(Nc2cccc(CS(=O)(=O)C(C)(C)C)c2)n1 [Compound 9, N ‐{3‐[(tertButylsulfonyl)methyl]phenyl}‐4‐(4‐fluoro‐2‐methoxyphenyl)‐1,3,5‐triazin‐2‐amine] | 
10 | 1000 | >20 |  | COc1cc(F)ccc1-c1ncnc(Nc2cccc(C(C)(C)S(C)(=O)=O)c2)n1 [Compound 11, 4‐(4‐Fluoro‐2‐methoxyphenyl)‐N‐{3‐[2‐(methylsulfonyl)propan‐2‐yl]phenyl}‐1,3,5‐triazin‐2‐amine] | 
11 | 67 | 19 | 4200 | COc1cc(F)ccc1-c1ncnc(Nc2cccc(C(F)(F)S(C)(=O)=O)c2)n1 [Compound 13, N ‐{3‐[Difluoro(methylsulfonyl)methyl]phenyl}‐4‐(4‐fluoro‐2‐methoxyphenyl)‐1,3,5‐triazin‐2‐amine] | 
12 | 23 | 62 | 1600 | COc1ccccc1-c1ncnc(Nc2cccc(CS(N)(=O)=O)c2)n1 [Compound 14, 1‐(3‐{[4‐(2‐Methoxyphenyl)‐1,3,5‐triazin‐2‐yl]amino}phenyl)methanesulfonamide] | 
13 | 27 | 108 | 3800 | COc1cc(Cl)ccc1-c1ncnc(Nc2cccc(CS(N)(=O)=O)c2)n1 [Compound 15, 1‐(3‐{[4‐(4‐Chloro‐2‐methoxyphenyl)‐1,3,5‐triazin‐2‐yl]amino}phenyl)methanesulfonamide] | 
14 | 1800 | 14 |  | COc1cnccc1-c1ncnc(Nc2cccc(CS(N)(=O)=O)c2)n1 [Compound 16, 1‐(3‐{[4‐(3‐Methoxypyridin‐4‐yl)‐1,3,5‐triazin‐2‐yl]amino}phenyl)methanesulfonamide] | 
15 | 130 | 6 | 2900 | NS(=O)(=O)Cc1cccc(Nc2ncnc(-c3ccc(F)cc3O)n2)c1 [Compound 17, 1‐(3‐{[4‐(4‐Fluoro‐2‐hydroxyphenyl)‐1,3,5‐triazin‐2‐yl]amino}phenyl)methanesulfonamide] | 
16 | 270 | 16 | > 3000 | NS(=O)(=O)Cc1cccc(Nc2ncnc(-c3ccc(F)cc3F)n2)c1 [Compound 18, 1‐(3‐{[4‐(2,4‐Difluorophenyl)‐1,3,5‐triazin‐2‐yl]amino}phenyl)methanesulfonamide] | 
17 | 620 | 20 | > 3000 | NS(=O)(=O)Cc1cccc(Nc2ncnc(-c3ccccc3OC(F)(F)F)n2)c1 [Compound 19, 1‐[3‐({4‐[2‐(Trifluoromethoxy)phenyl]‐1,3,5‐triazin‐2‐yl}amino)phenyl]methanesulfonamide] | 
18 | 1700 | >11 |  | COCc1ccccc1-c1ncnc(Nc2cccc(CS(N)(=O)=O)c2)n1 [Compound 20, 1‐[3‐({4‐[2‐(Methoxymethyl)phenyl]‐1,3,5‐triazin‐2‐yl}amino)phenyl]methanesulfonamide] | 
19 |  | <1 | 3000 | CC(=O)Nc1cc(F)ccc1-c1ncnc(Nc2cccc(CS(N)(=O)=O)c2)n1 [Compound 21, N ‐[5‐Fluoro‐2‐(4‐{[3‐(sulfamoylmethyl)phenyl]amino}‐1,3,5‐triazin‐2‐yl)phenyl]acetamide] | 
20 |  | 1 |  | NS(=O)(=O)Cc1cccc(Nc2ncnc(-c3ccc(F)cc3C(F)(F)F)n2)c1 [Compound 22, 1‐[3‐({4‐[4‐Fluoro‐2‐(trifluoromethyl)phenyl]‐1,3,5‐triazin‐2‐yl}amino)phenyl]methanesulfonamide] | 
21 | 4 | 34 | 100 | NS(=O)(=O)Cc1cccc(Nc2ncnc(-c3ccc(F)cc3OCc3ccccc3)n2)c1 [Compound 23, 1‐[3‐({4‐[2‐(Benzyloxy)‐4‐fluorophenyl]‐1,3,5‐triazin‐2‐yl}amino)phenyl]methanesulfonamide] | recovery at 60 min [1]: 0%; recovery at 60 min [2]: 0%; recovery at 60 min [3]: 0.2%
